Test results from patent publication US11945806B2, “Stabilization of amyloidogenic immunoglobulin light chains” (The Scripps Research Institute, priority 2019, dated 2024).

Molecular target: WIL-FL (Homo sapiens, UniProt P01721)
Test: Unlabeled LC Protease Sensitivity Assay (proteinase K)
Assay type: biochemical
Settings: small molecule 10 μM, WIL-FL 5 μM, proteinase K 50 nM, 2 hours at 37° C.
Protocol: Unlabeled LC Protease Sensitivity Assay. WIL-FL (5 μM) in phosphate-buffered saline (PBS, pH 7.4)+0.02% Pluronic F-127 was incubated with proteinase K (50 nM) with small molecule (10 μM) in 1% DMSO vehicle, or vehicle alone. After 2 hours at 37° C., reactions were quenched with 2 mM phenylmethyl sulfonyl fluoride in methanol and centrifuged at 14,000 rpm for 2 minutes. Remaining WIL-FL was quantified by injecting 10 μL of the supernatant into a Waters Acquity H-Class Bio-UPLC (ultra performance liquid chromatography) instrument equipped with a BEH200 analytical size-exclusion column (1.7 μm, 4.6×150 mm) under isocratic conditions (0.2 mL/min, PBS+1 mM EDTA, 2400 psi backpressure, 15 min), monitoring absorbance at 280 nm. Activity of each compound is given as fold protection from protease=(A_compound−A_vehicle)/(A_no_protease−A_vehicle), where each “A” corresponds to peak integration of the respective treatment.

SMILES | Protection (fold protection of LC from protease)
CCN(CC)c1ccc2c(C)c(CCNC(=O)OC(C)(C)C)c(=O)oc2c1 [Compound 69, Tert-butyl (2-(7-(diethylamino)-4-methyl-2-oxo-2H-chromen-3-yl)ethyl)carbamate] | A (A < 0.3))
CCN(CC)c1ccc2c(C)c(CCNC(=O)CCc3ccccc3)c(=O)oc2c1 [Compound 70, N-(2-(7-(diethylamino)-4-methyl-2-oxo-2H-chromen-3-yl)ethyl)-3-phenylpropanamide] | A (A < 0.3))
CCN(CC)c1ccc2c(C)c(CCC(=O)NCCc3ccccc3F)c(=O)oc2c1 [Compound 71] | A (A < 0.3))
CCN(CC)c1ccc2c(C)c(CCC(=O)NCCc3cccc(F)c3)c(=O)oc2c1 [Compound 72] | A (A < 0.3))
CCN(CC)c1ccc2c(C)c(CCC(=O)NCCc3ccc(F)cc3)c(=O)oc2c1 [Compound 73] | A (A < 0.3))
CCN(CC)c1ccc2c(C)c(CCC(=O)NCCc3ccncc3)c(=O)oc2c1 [Compound 76] | A (A < 0.3))
CCN(CC)c1ccc2c(C)c(CCOC(=O)NCc3ccccc3)c(=O)oc2c1 [Compound 78, 2-(7-(diethylamino)-4-methyl-2-oxo-2H-chromen-3-yl)ethyl benzylcarbamate] | A (A < 0.3))
CCN(CC)c1ccc2c(C)c(CCOC(=O)NC)c(=O)oc2c1 [Compound 79, 2-(7-(diethylamino)-4-methyl-2-oxo-2H-chromen-3-yl)ethyl methylcarbamate] | A (A < 0.3))
CCN(CC)c1ccc2c(C)c(CCOC(=O)NCCc3ccccc3)c(=O)oc2c1 [Compound 80, 2-(7-(diethylamino)-4-methyl-2-oxo-2H-chromen-3-yl)ethyl phenethylcarbamate] | A (A < 0.3))
CCN(CC)c1ccc2c(C)c(CCOC(=O)NCCCc3ccccc3)c(=O)oc2c1 [Compound 81, 2-(7-(diethylamino)-4-methyl-2-oxo-2H-chromen-3-yl)ethyl (3-phenylpropyl)carbamate] | A (A < 0.3))
CCN(CC)c1ccc2c(C)c(CCOC(=O)NCCc3ccccn3)c(=O)oc2c1 [Compound 82, 2-(7-(diethylamino)-4-methyl-2-oxo-2H-chromen-3-yl)ethyl (2-(pyridin-2-yl)ethyl)carbamate] | A (A < 0.3))
CCN(CC)c1ccc2c(C)c(CCOC(=O)NCCc3cccnc3)c(=O)oc2c1 [Compound 83, 2-(7-(diethylamino)-4-methyl-2-oxo-2H-chromen-3-yl)ethyl (2-(pyridin-3-yl)ethyl)carbamate] | A (A < 0.3))
CCN(CC)c1ccc2c(C)c(CCOC(=O)NCCc3ccncc3)c(=O)oc2c1 [Compound 84, 2-(7-(diethylamino)-4-methyl-2-oxo-2H-chromen-3-yl)ethyl (2-(pyridin-4-yl)ethyl)carbamate] | A (A < 0.3))
CCN(CC)c1ccc2c(C)c(CCOC(=O)NCc3ccccn3)c(=O)oc2c1 [Compound 85, 2-(7-(diethylamino)-4-methyl-2-oxo-2H-chromen-3-yl)ethyl (pyridin-2-ylmethyl)carbamate] | B (3 ≤ B < 0.6)
CCN(CC)c1ccc2c(C)c(CCOC(=O)NCc3ccncc3)c(=O)oc2c1 [Compound 86, 2-(7-(diethylamino)-4-methyl-2-oxo-2H-chromen-3-yl)ethyl (pyridin-4-ylmethyl)carbamate] | B (3 ≤ B < 0.6)
CCN(CC)c1ccc2c(C)c(CCOC(=O)NCc3ccco3)c(=O)oc2c1 [Compound 87, 2-(7-(diethylamino)-4-methyl-2-oxo-2H-chromen-3-yl)ethyl (furan-2-ylmethyl)carbamate] | B (3 ≤ B < 0.6)
CCN(CC)c1ccc2c(C)c(CCOC(=O)NCCc3cnc[nH]3)c(=O)oc2c1 [Compound 88, 2-(7-(diethylamino)-4-methyl-2-oxo-2H-chromen-3-yl)ethyl (2-(1H-imidazol-4-yl)ethyl)carbamate] | B (3 ≤ B < 0.6)

SMILES | Protection (fold protection of LC from protease)
CCN(CC)c1ccc2c(C)c(CCOC(=O)NCc3cccnc3)c(=O)oc2c1 [Compound 89, 2-(7-(diethylamino)-4-methyl-2-oxo-2H-chromen-3-yl)ethyl (pyridin-3-ylmethyl)carbamate] | C (C ≥ 0.6)
CCN(CC)c1ccc2c(C)c(CCOC(=O)NCc3ccncn3)c(=O)oc2c1 [Compound 90, 2-(7-(diethylamino)-4-methyl-2-oxo-2H-chromen-3-yl)ethyl (pyrimidin-4-ylmethyl)carbamate] | A (A < 0.3))
CCN(CC)c1ccc2c(C)c(CCOC(=O)NCc3cnccn3)c(=O)oc2c1 [Compound 91, 2-(7-(diethylamino)-4-methyl-2-oxo-2H-chromen-3-yl)ethyl (pyrazin-2-ylmethyl)carbamate] | B (3 ≤ B < 0.6)
CCN(CC)c1ccc2c(C)c(CCOC(=O)NCc3ccn[nH]3)c(=O)oc2c1 [Compound 92, 2-(7-(diethylamino)-4-methyl-2-oxo-2H-chromen-3-yl)ethyl ((1H-pyrazol-5-yl)methyl)carbamate] | B (3 ≤ B < 0.6)
CCN(CC)c1ccc2c(C)c(CCOC(=O)NCc3ncccn3)c(=O)oc2c1 [Compound 93, 2-(7-(diethylamino)-4-methyl-2-oxo-2H-chromen-3-yl)ethyl (pyrimidin-2-ylmethyl)carbamate] | B (3 ≤ B < 0.6)
CCN(CC)c1ccc2c(C)c(CCNC(C)=O)c(=O)oc2c1 [Compound 94, N-(2-(7-(diethylamino)-4-methyl-2-oxo-2H-chromen-3-yl)ethyl)acetamide] | A (A < 0.3))
CCN(CC)c1ccc2c(C)c(CCNC(=O)CCc3ccncc3)c(=O)oc2c1 [Compound 96, N-(2-(7-(diethylamino)-4-methyl-2-oxo-2H-chromen-3-yl)ethyl)-3-(pyridin-4-yl)propanamide] | A (A < 0.3))
CCN(CC)c1ccc2c(C)c(CCOC(=O)NCc3ccc(Cl)nc3)c(=O)oc2c1 [Compound 97, 2-(7-(diethylamino)-4-methyl-2-oxo-2H-chromen-3-yl)ethyl ((6-chloropyridin-3-yl)methyl)carbamate] | A (A < 0.3))
CCN(CC)c1ccc2c(C)c(CCNC(=O)NCc3cccnc3)c(=O)oc2c1 [Compound 98, 1-(2-(7-(diethylamino)-4-methyl-2-oxo-2H-chromen-3-yl)ethyl)-3-(pyridin-3-ylmethyl)urea] | C (C ≥ 0.6)
CCN(CC)c1ccc2c(C)c(CCNC(=O)NCCc3cccnc3)c(=O)oc2c1 [Compound 99, 1-(2-(7-(diethylamino)-4-methyl-2-oxo-2H-chromen-3-yl)ethyl)-3-(2-(pyridin-3-yl)ethyl)urea] | B (3 ≤ B < 0.6)
CCN(CC)c1ccc2c(C)c(CCNC(=O)OCc3cccnc3)c(=O)oc2c1 [Compound 100, Pyridin-3-ylmethyl (2-(7-(diethylamino)-4-methyl-2-oxo-2H-chromen-3-yl)ethyl)carbamate] | A (A < 0.3))
CCN(CC)c1ccc2c(C)c(CCOC(=O)NCc3ccc(C(F)(F)F)nc3)c(=O)oc2c1 [Compound 101, 2-(7-(diethylamino)-4-methyl-2-oxo-2H-chromen-3-yl)ethyl ((6-(trifluoromethyl)pyridin-3-yl)methyl)carbamate] | A (A < 0.3))
CCN(CC)c1ccc2c(C)c(CCOC(=O)N(C)CCc3cccnc3)c(=O)oc2c1 [Compound 102, 2-(7-(diethylamino)-4-methyl-2-oxo-2H-chromen-3-yl)ethyl methyl(2-(pyridin-3-yl)ethyl)carbamate] | A (A < 0.3))
CCN(CC)c1ccc2c(C)c(CCOC(=O)Nc3ccc(NC(C)=O)cn3)c(=O)oc2c1 [Compound 103, 2-(7-(diethylamino)-4-methyl-2-oxo-2H-chromen-3-yl)ethyl (5-acetamidopyridin-2-yl)carbamate] | B (3 ≤ B < 0.6)
CCN(CC)c1ccc2c(C)c(CCOC(=O)N3CC(C(=O)OC)C3)c(=O)oc2c1 [Compound 104, 1-(2-(7-(diethylamino)-4-methyl-2-oxo-2H-chromen-3-yl)ethyl) 3-methyl azetidine-1,3-dicarboxylate] | A (A < 0.3))
CCOC(=O)N1CCC(NC(=O)OCCc2c(C)c3ccc(N(CC)CC)cc3oc2=O)CC1 [Compound 105, Ethyl 4-(((2-(7-(diethylamino)-4-methyl-2-oxo-2H-chromen-3-yl)ethoxy)carbonyl)amino)piperidine-1-carboxylate] | B (3 ≤ B < 0.6)
CCN(CC)c1ccc2c(C)c(CCOC(=O)N3CCC(CO)C3)c(=O)oc2c1 (stereo not shown) [Compound 106, 2-(7-(diethylamino)-4-methyl-2-oxo-2H-chromen-3-yl)ethyl 3-(hydroxymethyl)pyrrolidine-1-carboxylate] | A (A < 0.3))
